Results taken from US20170290336A1, “Isolated Bacterial Strain of the Genus Burkholderia and Pesticidal Metabolites Therefrom” (Marrone Bio Innovations, Inc., priority 2010, published 2017).

Tests used:
[1] = system: green peach aphid (Myzus persicae); experiment: Sucking insect test in vivo on mustard plants; conditions: positive control (Avid) sprayed; 10 aphids at Day 0
Method: The in vivo efficacy of the filtered whole cell broth is tested in a plant assay with mustard plants and green peach aphid (Myzus persicae) as the test insect. Approximately one-month-old Florida Broadleaf mustard (Brassica sp.) plants are sprayed with two different concentrations (1× and 0.5×) of the filter sterilized whole cell broth of Burkholderia sp. using a Paasche airbrush. Water and a commercial product of avermectin (Avid) are used as negative and positive controls, respectively. The plants are allowed to dry on the benchtop, after which they are placed in a 6-cup plastic container with a lid with airholes. Ten aphids at various developmental stages are placed on each test plant, and the plants are incubated under growth lamps for 7 days at 25° C. Daily evaluations for the number of aphids on each plant (summarized in table Table 8 below) are made and recorded in a notebook.

B. cepacia isolates = conditions: 366 B. cepacia isolates; cited from earlier work
B. cepacia complex = conditions: 2,621 strains in B. cepacia complex from cystic fibrosis patients; cited from earlier work
Burkholderia A396 = experiment: Antibiotic susceptibility, antibiotic disks on Muller-Hinton medium; format: cell-based, Burkholderia sp. A396; conditions: 72-hour incubation at 25° C.
Method: Antibiotic susceptibility of Burkholderia A396 is tested using antibiotic disks on Muller-Hinton medium as described in PML Microbiological's technical data sheet #535.

[2] = system: barnyard grass (Echinochloa crus-galli) seedlings; experiment: Herbicidal laboratory assay, 96-well plate; format: in vivo; conditions: after five days; for Grass seedlings (% Mortality): 10 μg/mL concentration per well
Method: The herbicidal activity of the active compound FR90128 (MW 540) is tested in a laboratory assay using one-week old barnyard grass (Echinochloa crus-galli) seedlings in a 96-well plate platform. One grass seedling was placed in each of the wells containing 99 microliters of DI water. One microliter aliquot of the pure compound in ethanol (10 mg/mL) is added into each well, and the plate is sealed with a lid. One microliter of ethanol in 99 microliters of water is used as a negative control. The treatments were done in eight replicates, and the sealed plate is incubated in a greenhouse under artificial lights (12 hr light/dark cycle). After five days, the results are read.
(§1) The herbicidal activity of templamide A, B, FR901465 and FR90128 are tested in a laboratory assay using one-week old barnyard grass (Echinochloa crus-galli) and lettuce (Lactuca sativa L.) seedlings in a 96-well plate platform. One seedling is placed in each of the wells containing 99 microliters of DI water. Into each well, a one microliter aliquot of the pure compound in ethanol (10 mg/mL) is added, and the plate is sealed with a lid. One microliter of ethanol in 99 microliters of water is used as a negative control. The treatments are done in eight replicates, and the sealed plate is incubated in a greenhouse under artificial lights (12 hr light/dark cycle). After five days, the results are read. […] The herbicidal activity of templamide A against lettuce seedlings is slightly lower than for the grass. On the other hand, templamide B provides a better (100%) control of lettuce seedlings (used as a model system for broadleaf weeds) than templamide A (Table 11).

Botrytis cinerea = experiment: In vitro PDA plate assay, filter paper disks; format: cell-based; conditions: 5 days
Method: (§2) Fungicidal activity of FR90128 (MW 540) against three plant pathogenic fungi (Botrytis cinerea, Phytophtora sp., Monilinia fructicola) is tested in an in vitro PDA (potato dextrose agar) plate assay. Plates are inoculated with the fungus using a plug method. After the fungus had established and started to grow on the growth medium, eight sterile filter paper disks are placed on each plate about 1 cm from the edge in a circle. Ten microliters of ethanol solution containing 20, 15, 10, 7.5, 5, 2.5 1.25 mg FR90128/mL is added into filter paper disks, and the solution is left to evaporate. One disk imbedded with 10 μL of pure ethanol is used as a negative control. The assay is done with three replicates. Plates are incubated at room temperature for 5 days, after which the fungicidal activity is recorded by measuring the inhibition zone around each filter paper disk corresponding to different concentrations of FR90128.

Monilinia fructicola = experiment: In vitro PDA plate assay, filter paper disks; format: cell-based; conditions: 10 μL of 1.25-20 mg/mL on disks; 5 days
Method: as §2

Phytophtora sp. = experiment: In vitro PDA plate assay, filter paper disks; format: cell-based; conditions: 5 days
Method: as §2

[3] = system: 1st instar Beet Army Worm (Spodoptera exigua); experiment: 96-well diet overlay assay; format: in vivo; conditions: 10 μg/mL concentration per well, 100 μl on diet, 6 days at 26° C.; for mortality at 10 µg/mL: Spodoptera exigua, 144 h
Method: The insecticidal activity of templamide A, B, FR901465 and FR90128 are tested in a laboratory assay using a 96-well diet overlay assay with ^1st instar Beet Armyworm larvae using microtiter plates with 200 μl of solid, artificial Beet Armyworm diet in each well. One hundred (100) μl of each test sample is pipetted on the top of the diet (one sample in each well), and the sample is let dry under flowing air until the surface is dry. Each sample was tested in six replicates, and water and a commercial Bt (B. thuringiensis) product are used as negative and positive controls, respectively. One first instar larvae of the test insect (Beet armyworm—Spodoptera exiqua) was placed in each well, and the plate was covered with plastic cover with airholes. The plates with insects were incubated at 26° C. for 6 days with daily mortality evaluations. Based on the results presented in Table 12, templamide A and B results in 40% and 80% mortality, respectively.

[4] = system: lettuce (Lactuca sativa L.) seedlings; experiment: Herbicidal laboratory assay, 96-well plate; format: in vivo; conditions: 10 μg/mL concentration per well, after five days
Method: as §1

lettuce = experiment: 96 well plate lettuce seeding assay; format: in vivo; conditions: bioassay-guided isolation
Method: The culture broth derived from the 10-L fermentation Burkholderia (A396) in Hy soy growth medium is extracted with Amberlite XAD-7 resin (Asolkar et al., 2006) by shaking the cell suspension with resin at 225 rpm for two hours at room temperature. The resin and cell mass are collected by filtration through cheesecloth and washed with DI water to remove salts. The resin, cell mass, and cheesecloth are then soaked for 2 h in acetone after which the acetone is filtered and dried under vacuum using rotary evaporator to give the crude extract. The crude extract is then fractionated by using reversed-phase C18 vacuum liquid chromatography (H2O/CH3OH; gradient […] to 0:100%) to give 10 fractions. These fractions are then concentrated to dryness using rotary evaporator and the resulting dry residues are screened for biological activity using 96 well plate lettuce seeding assay. The active fractions are then subjected to reversed phase HPLC (Spectra System P4000 (Thermo Scientific) to give pure compounds, which are then screened in above mentioned bioassays to locate/identify the active compounds. To confirm the identity of the compound, additional spectroscopic data such as LC/MS and NMR is recorded.

[5] = 10 μL of 1.25-20 mg/mL on disks

CC[C@H](C)[C@H]1O[C@]2(C=C[C@@H]1C)C[C@@H]1C[C@@H](C/C=C(\C)[C@@H](O[C@H]3C[C@H](OC)[C@@H](O[C@H]4C[C@H](OC)[C@@H](O)[C@H](C)O4)[C@H](C)O3)[C@@H](C)/C=C/C=C3\CO[C@@H]4[C@H](O)C(C)=C[C@@H](C(=O)O1)[C@]34O)O2 [Avermectin]
# live aphids Day 2 [1]: 0 | # live aphids Day 4 [1]: 0 | # live aphids Day 7 [1]: 0

CO/N=C(\C(=O)N[C@@H]1C(=O)N2C(C(=O)O)=C(COC(N)=O)CS[C@H]12)c1ccco1 [Cefuroxime]
resistance of isolates (in words) (B. cepacia isolates): most of them are resistant

O=C(N[C@H](CO)[C@H](O)c1ccc([N+](=O)[O-])cc1)C(Cl)Cl [Chloramphenicol]
strains resistant (B. cepacia complex): 85% | strains susceptible (B. cepacia complex): 15% | Susceptibility of Burkholderia A396 (in words) (Burkholderia A396): susceptible | resistance of isolates (in words) (B. cepacia isolates): most of them are resistant

O=C(O)c1cn(C2CC2)c2cc(N3CCNCC3)c(F)cc2c1=O [Ciprofloxacin]
strains susceptible (B. cepacia complex): 5% | Susceptibility of Burkholderia A396 (in words) (Burkholderia A396): susceptible | resistance of isolates (in words) (B. cepacia isolates): most of them are resistant

C/C=C1\NC(=O)C2CSSCC/C=C/C(CC(=O)NC(C(C)C)C(=O)N2)OC(=O)C(C(C)C)NC1=O (centres unmarked) [FR90128]
state of grass seedlings (in words) ([2]; 1 microliter of 10 mg/mL in ethanol added to 99 microliters water, all eight wells): dead with no green tissue left | effect on hyphal growth of Botrytis (in words) (Botrytis cinerea; [5]): effective in controlling the hyphal growth | threshold concentration for inhibition, Botrytis (Botrytis cinerea; 10 μL per filter paper disk): 10 mg/mL | effect on the growth of Monilinia (in words) (Monilinia fructicola): no effect | effect on hyphal growth of Phytophtora (in words) (Phytophtora sp.; [5]): effective in controlling the hyphal growth | threshold concentration for inhibition, Phytophtora (Phytophtora sp.; 10 μL per filter paper disk): 1.25 mg/mL | mortality at 10 µg/mL [3]: 90%

CCC(=O)OC(C)/C=C\C(=O)NC1CC(C)C(C/C=C(C)/C=C/C2OC(C)(O)C(O)C3(CO3)C2O)OC1C (centres unmarked) [FR901465]
Lettuce seedlings (% Mortality) [4]: 100% | Grass seedlings (% Mortality) [2]: 88% | (% Mortality) [3]: 50%

C[C@@H](O)[C@H]1C(=O)N2C(C(=O)O)=C(SCCN=CN)C[C@H]12 [Imipenem]
strains susceptible (B. cepacia complex): 7% | Susceptibility of Burkholderia A396 (in words) (Burkholderia A396): susceptible | resistance of isolates (in words) (B. cepacia isolates): most of them are resistant

NC[C@H]1O[C@H](O[C@H]2[C@H](O)[C@@H](O[C@H]3O[C@H](CO)[C@@H](O)[C@H](N)[C@H]3O)[C@H](N)C[C@@H]2N)[C@H](O)[C@@H](O)[C@@H]1O [Kanamycin]
Susceptibility of Burkholderia A396 (in words) (Burkholderia A396): susceptible

CCN1CCN(C(=O)N[C@@H](C(=O)N[C@@H]2C(=O)N3[C@@H]2SC(C)(C)[C@@H]3C(=O)O)c2ccccc2)C(=O)C1=O [Piperacillin]
Susceptibility of Burkholderia A396 (in words) (Burkholderia A396): susceptible

CCC(=O)OC(C)/C=C\C(=O)NC1CC(C)C(C/C=C(C)/C=C/C2OC(C)(O)C(O)C(O)(CO)C2O)OC1C (centres unmarked) [Templamide A]
mortality at 10 µg/mL [3]: 40%

CCC(=O)OC(C)/C=C\C(=O)NC1CC(C)C(C/C=C(C)/C=C/C2OC(C)(O)C(O)C3(CO3)C2O)OC1C (centres unmarked) [Templamide B]
Lettuce seedlings (% Mortality) [4]: 75% | Lettuce seedlings (% Mortality) ([4]; listed as templamide B): 100% | Grass seedlings (% Mortality) [2]: 0% | (% Mortality) [3]: 80%

CN(C)[C@@H]1C(O)=C(C(N)=O)C(=O)[C@@]2(O)C(O)=C3C(=O)c4c(O)cccc4[C@@](C)(O)[C@H]3C[C@@H]12 [Tetracycline]
resistance of isolates (in words) (B. cepacia isolates): most of them are resistant

Cc1cc(NS(=O)(=O)c2ccc(N)cc2)no1 [sulphametoxacole]
resistance of isolates (in words) (B. cepacia isolates): most of them are resistant

COC(=O)c1nc(CC(C)C)oc1-c1c[nH]c2ccccc12 [templazole A]
herbicidal activity of pure compound (in words) (lettuce): active

templazole B
herbicidal activity of pure compound (in words) (lettuce): herbicidally active
